Marks after values point to notes of the source that are not given here.
Key:
[1] = tested on: RAW 264.7 macrophages; assay: Inflammation parameters (TNF-α, NO, IL-6) in supernatant of LPS-stimulated RAW 264.7 macrophages; assay type: cell-based; conditions: 10 μM, LPS 1 μg/ml, 24 h
Experimental: To determine the production of cytokines, 5×10^5 RAW 264.7 macrophages were seeded in 24-well plates (0.5 ml per well). The compounds to be tested were then added (10 μM), and the macrophages were either stimulated or not through the addition of LPS (1 μg/ml) to the culture medium. After 24 hours, the levels of IL-6 and TNF-α were measured in the supernatants by ELISA using the capture and biotinylated antibodies from BD PharMingen and PrepoTech (Gonzalez-Rey et al., Gut. 2009; 58:929-939; Sánchez et al., Stem Cells. 2011; 29:251-262). The levels of NO in the supernatants at 24 hours were measured indirectly by determining the nitrite concentration in the medium using the Griess reagent (Anderson et al., Gut. 2013; 62:1131-1141). A minimum of two independent experiments and three replicates per experiment were performed for each measured value. The values are expressed as the mean±standard deviation.
In the previous assay, the levels of various inflammation parameters were measured (TNF-α, NO, and IL-6) by ELISA after treatment with RES or with compound 2 (FIGS. 3, 4, and 5).

[2] = Zebrafish embryo toxicity assay; conditions: in vivo, other: incubation of embryos with the compound, 0 to 96 hpf
Experimental: Twenty zebrafish embryos were incubated for each concentration of compound to be tested (1 to 4). The concentrations used of each compound are 0.1 μM, 1 μM, 10 μM, 100 μM and 1 mM. The incubation period goes from 0 to 96 hours post fertilization (hpf). A negative control of 1% DMSO and a positive control of N, N-diethylaminobenzaldehyde (DEAB) are included. After the incubation period, the LC50 (lethal dose for 50% of the animals) is calculated.

[3] = tested on: Prpf31^A216P/+ (KI) mice; assay: Prpf31 A216P/+ mice RPE degeneration model, eye drops and light damage; assay type: in vivo, mouse; conditions: for Fundus Abnormal (%) / Fundus Normal (%) / Fundus Abnormal (number) / Fundus Normal (number): 2 mM eye drops daily for two and a half months, 5,000 lux 3 h; for Fundus Abnormal (number) / Fundus Normal (number): n=10; for number of positive responses in optomotor test (visual acuity): 6 spatial frequencies 0.031-0.272 cycles/degree, vs control KI; for thickness of the retina (OCT): vs control KI group; for statistical association with normal fundi vs control KI group: chi-square / Fisher's exact test
From the text: Prpf31^A216P/+ mice are a useful model for assessing the degeneration of the RPE. This model is characterized by an increase in the thickness of the Bruch membrane and accumulation of esterified cholesterol between said membrane and the RPE produced by a defect in the splicing of the mRNA of relevant genes of the visual cycle, such as RPE65 and RDH12. The accumulation of toxic products derived from retinol leads to an increase in ROS, infiltration of macrophages, and primary degeneration of the RPE. The degeneration of the RPE occurs late, at approximately 8 months of age. The phenotypic characteristics of this model can be exacerbated by exposure to intense light and are characterized primarily by accumulation of pseudo-drusenoid lesions and regions of atrophy observed in the fundus, with a loss of visual acuity and perception of contrast being observed, as well as a decrease in the amplitude of the c-wave of the ERG and a decrease in the thickness of the retina.
To evaluate the protective effect of the administration of our compounds in eye drops, we used heterozygous 6 month-old Prpf31^A216P/+ (KI) mice that were treated topically with 20 μl of the studied compounds applied directly on the corneal surface daily (L-V) for two and a half months. The compounds used were RES and compound 2, which were diluted in a solution of 13% hydroxypropyl-beta-cyclodextrin (CYCLO) in order to obtain a final concentration of 2 mM of each compound. After two and a half months of application of the eye drops with CICLO, RES, or compound 2, the mutant KI mice were exposed to a light source of 5,000 lux for 3 hours. Normal (WT) and KI mice were also exposed to intense light as test control without receiving any treatment. Subsequently, the fundus of the animals was evaluated, in addition to the visual acuity by means of the optomotor test, the thickness of the retina by means of optical coherence tomography (OCT), and the amplitude of the c-wave by ERG.
Two categories were used to quantify the macroscopic characteristics of the fundus: abnormal and normal fundus. The fundi categorized as abnormal were those in which the presence of autofluorescent pseudo-drusenoid lesions was observed (FIG. 11; arrows) or with regions of focal atrophy (FIG. 11; arrowheads). The percentage of abnormal fundi in the WT mice exposed to light (WT control) was 20%, and in the untreated KI (KI control) it was 90%. Meanwhile, this percentage was reduced to 30% in mice treated with compound 2 (KI 2) and only to 60% in both mice treated with CYCLE (KI CYCLE) and RES (KI RES) (table 1). […] These values were similar to those observed when comparing WT control and KI control (chi-square=7.35, P<0.01, Fisher's exact test P<0.05) and with a probability of obtaining a normal fundus in the WT control group of eight times greater than in the control KI (normal RR=8; IC95%=1.184-54.043).
To evaluate the thickness of the retina in vivo, a Stratus OCT (Zeiss) was used with a scanner adjusted to 6 lines of 3.45 mm each arranged radially. Six measurements were performed in each eye, upon which the retinal map was prepared (FIG. 12) with the thickness of the retina quantified from the ganglion cell layer to the RPE.
To evaluate the functional integrity of the RPE, the amplitude of the c-wave in the ERG was measured. The c-wave is defined as a positive slow wave that appears after the b-wave and is used to measure the functional integrity of the RPE. Since the amplitude of this wave can be affected by the integrity of the photoreceptors, it is best to normalize the results with the amplitude of the b-wave, for which reason a quantification was performed of the proportion of the amplitude of the c-wave between the amplitude of the b-wave (c-/b-wave ratio) (FIG. 13). […]

[4] = KI mice, 2 mM eye drops, light damage

Compound	IL-6 in culture medium ([1]; ELISA)	LC50 [2]	Fundus Abnormal (%) ([3]; KI mice)	Fundus Normal (%) ([3]; KI mice)	Fundus Abnormal (%) ([3]; KI mice, listed as compound 2)	Fundus Abnormal (number) ([3]; KI mice)	Fundus Normal (number) ([3]; KI mice)	autofluorescent pseudo-drusenoid lesions and regions of focal atrophy in the fundus [3, 4]	c-/b-wave ratio (ERG) [3, 4]	number of positive responses in optomotor test (visual acuity) [3, 4]	autofluorescent pseudo-drusenoid lesions and regions of focal atrophy in the fundus ([3]; KI mice, 2 mM eye drops, light damage, listed as compound 2)	thickness of the retina (OCT) [3, 4]	statistical association with normal fundi vs control KI group [3]	RR normal (probability of normal fundus vs. KI control) ([3]; vs KI control, IC95% = 1.044-46.949)	TNF-α in culture medium ([1]; ELISA)	NO in culture medium ([1]; Griess reagent)
CCCCCCCC(=O)OCC1OC(Oc2cc(O)cc(/C=C/c3ccc(O)cc3)c2)C(O)C(O)C1O [Compound 2, trans-resveratrol-3-O-(6′-O-octanoyl)-β-D-glucopyranoside]	similarly	< 140 µM	(30) %	(70)* %	30%	3	7	this type of lesion was not observed	significantly higher	significantly higher	prevented the formation	significantly greater	statistically significant relationship	7	–	–
Oc1ccc(C=Cc2cc(O)cc(O)c2)cc1 [RES, resveratrol, reference compound]	significantly decreases	< 1000 µM	–	(40) %	–	6	4	areas with autofluorescent punctiform yellow-white lesions (arrows) were observed	–	only significant at 0.194 cycles/degree	–	significantly greater	no statistically significant association	–	significantly decreases	significantly decreases

From US11213536B2, “Acylated compounds for the treatment of ocular pathologies” (CONSEJO SUPERIOR DE INVESTIGACIONES CIENTÍFICAS, priority 2016, dated 2022)
